{"source": "patent US20080102130A1", "about": "“DRY GRANULATED PHARMACEUTICAL COMPOSITIONS AND METHODS FOR PRODUCING SAME” (Janssen Pharmaceutica NV, priority 2006, published 2008)", "assay": "Particle size distribution of the drug substance", "type": "physicochemical", "from_the_text": "Tapentadol is predominantly rectangular or rod-shaped crystalline powder. […] The D10 can be as low as 5 microns while the D99 can be as high as 500 microns. Although, the particle size distribution of the drug substance is controlled during crystallization, milling or micronizing the API to less than a micron size would not affect processability, as described herein, or the attribute of the drug product. Other APIs with similar properties such as Tramadol are expected to have a similar behavior."}
{"smiles": "CC[C@@H](c1cccc(O)c1)[C@@H](C)CN(C)C", "note": "[Tapentadol]", "values": [{"measurement": "Particle size distribution D10", "result": "≥ 5", "unit": "microns"}, {"measurement": "Particle size distribution D99", "result": "≤ 500", "unit": "microns"}]}
